Nc1cccc(C(=O)O)c1O
solubility (mole fraction)
Conditions | 293.2 K | 298.2 K | 303.2 K | 308.2 K | 313.2 K
in ethanol | 0.000186 | 0.000238 | 0.000285 | 0.000332 | 0.000386
in water | 0.000113 | 0.000126 | 0.000141 | 0.00016 | 0.000178

Source: BigSolDB 2.1
